Laboratory results as given in patent publication US20090042991A1, “Methods of increasing natural killer cell activity for therapy” (priority 2005, published 2009).
“And” between values parts separate entries of the source, which are not always exact repeats. Equal values may be shown once. “Also recorded” adds a separate entry of the source.

Experiments:
[1] = system: NK cell activity; experiment: NK cell cytotoxic activity of patient PBMC (K562/eGFP flow cytometry), lung carcinoma study; format: in vivo, human; settings: for % tumor cell lysis post-dose / NK activity (change before and after dosing) / % tumor cell lysis pre-dose: Effector/Target 80:1; for % tumor cell lysis pre-dose: baseline before dosing
Excerpt: The following procedure can be employed to assay NK cell activity in a subject. The procedure is adapted from Kantakamalakul W, Jaroenpool J, Pattanapanyasat K. A novel enhanced green fluorescent protein (EGFP)-K562 flow cytometric method for measuring natural killer (NK) cell cytotoxic activity. J Immunol Methods. 2003 Jan. 15; 272:189-197, the entire teachings of which are incorporated herein by reference.
Materials and methods: Human erythroleukaemic cell line, K562, was obtained from American Type Culture Collection (CCL-243, American Type Culture Collection, Manassas, Va.), and cultured in RPMI-1640 medium (Cat#1875-093Gibco Invitrogen Corp, Carlsbad, Calif.) supplemented with 10% heat inactivated fetal calf serum (Gibco), 2 mM L-glutamin, 100 μg/ml streptomycin and 100 IU/ml penicillin at 37° C. with 5% CO2. K562 cells were transduced with retroviral vector which encode green fluorescent protein (eGFP). Stable cell line was selected with antibiotic, G418.
The subject's peripheral blood mononuclear cells (PBMCs) were prepared by clinical study sites and received in BD Vacutainer Cell Preparation Tube with sodium heparin (Product Number: 362753, Becton Dickinson, Franklin Lakes, N.J.).
Effector cells alone and target cells alone were used as controls. All tubes were incubated at 37° C. with 5% CO2 for about 3.5 hr. Ten microliters of propidium iodide (PI) at a concentration of 1 mg/mL was added t each tube including effector and target control tubes and then incubated at room temperature for 15 min.
Cytotoxic activity was analyzed with a FACSCalibur flow cytometer (Becton Dickinson). Linear amplification of the forward and side scatter (FSC/SSC) signals, as well as logarithmic amplification of eGFP and PI emission in green and red fluorescence were obtained. Ten thousand events per sample tube with no gating for acquisition were collected for analysis. Data analysis for two-parameter dot plots for eGFP versus PI was performed using CELLQuest (Becton Dickinson Biosciences) software to enumerate live and dead target cells. Debris and dead cells were excluded by setting a threshold of forward light scatter.
(§1) Dosing was IV q 3 weeks for up to 6 cycles in the absence of dose-limiting toxicity or progression. […] The phase 2 primary endpoint is time to progression, with secondary endpoints of response rate, survival, and quality of life. Study pharmacodynamic parameters include NK cell activity and Hsp70 level.
Best Response indicates an evaluation of the patient's tumor: PR=at least a 30% decrease in the sum of the longest diameters as compared to baseline, while SD indicates less than 20% of an increase and less than 30% of a decrease in the sum of the longest diameters as compared to baseline. […] NK Activity indicates the change in NK activity before and after dosing.

[2] = system: non-small cell lung carcinoma; experiment: Phase 1/2 study: tumor response (RECIST) with carboplatin and paclitaxel; format: in vivo, human; settings: for Best Response / Target Lesions (percent change): one value per subject
[3] = Melanoma study: safety; format: in vivo, human
Procedure: The higher tolerated dose level was expanded to a total of 20 patients (Stage 1).
(§2) The study will continue to Stage 2 if 7 or more patients have a response of stable disease or better, or at least 2 patients have a partial response or better. A safety assessment was performed with the first 6 patients enrolled as the weekly dose schedule had not previously been studied in humans. The primary endpoint is non-progression rate (NPR) at 3 months and response rate. Pharmacodynamic parameters include pre and post-dose NK cell activity in blood and when possible, tumor biopsies.

[4] = system: advanced metastatic melanoma; experiment: 2 stage Phase 2 study: tumor response with paclitaxel; format: in vivo, human; settings: for Best Response cycle 2 week 4: one value per subject
Procedure: as §2, with “The higher tolerated dose level was expanded to a total of 20 patients (Stage 1). The study” for “The study”, “tumor biopsies. […] Best Response indicates an evaluation of the patient's tumor: SD indicates less than 20% of an increase and less than 30% of a decrease in the sum of the longest diameters as compared to baseline; and PD=at least a 20% increase in the sum of the longest diameters as compared to baseline. NK Activity indicates the change in NK activity before and after dosing.” for “tumor biopsies.”

[5] = system: Hsp70; experiment: Phase I trial: plasma Hsp70 by sandwich ELISA; format: in vivo, human
Procedure: Plasma Hsp70 was measured by a sandwich ELISA kit (Stressgen Bioreagents Victoria, British Columbia, CANADA) according to a modified protocol in house. In brief, Hsp70 in plasma specimens and serial concentrations of Hsp70 standard were captured onto 96-well plate on which anti-Hsp70 antibody was coated. Then captured Hsp70 was detected with a biotinylated anti-Hsp70 antibody followed by incubation with europium-conjugated streptavidin. After each incubation unbound materials were removed by washing. Finally, antibody-Hsp70 complex was measured by time resolved fluorometry of europium. Concentration of Hsp70 was calculated from a standard curve.

[6] = Phase 1/2 lung carcinoma study: safety; format: in vivo, human
Procedure: Phase 1 (safety/PK/MTD (maximum tolerated dose) was followed by a Phase 2 randomized two arm portion. Two dose levels were evaluated in Phase 1.
as §1

[7] = Paclitaxel 175 + Cmpnd (1) 233 mg/M^2 (carboplatin AUC 6), one value per subject
[8] = Paclitaxel 200 + Cmpnd (1) 266 mg/M^2 (carboplatin AUC 6), one value per subject
[9] = Paclitaxel 175 + Cmpnd (1) 233 mg/M^2 (carboplatin AUC 6)
[10] = Paclitaxel 200 + Cmpnd (1) 266 mg/M^2 (carboplatin AUC 6)

CN(NC(=O)CC(=O)NN(C)C(=S)c1ccccc1)C(=S)c1ccccc1 [Compound (1)]
% tumor cell lysis post-dose [1, 7]: 30.8% and 7.75% and 14.61% and 16.14% and 8.76% and 10.05%
NK activity (change before and after dosing) [1, 7]: increase; also recorded: no change
% tumor cell lysis post-dose [1, 8]: 5.5% and 7.81%
NK activity (change before and after dosing) [1, 8]: decrease; also recorded: increase
% tumor cell lysis pre-dose [1, 7]: 7.79% and 0.92% and 10.7% and 9.55% and 3.12% and 7.84%
% tumor cell lysis pre-dose [1, 8]: 8.4% and 3.59%
NK activity (change before and after dosing) ([1]; dose not printed (subjects 9-11), listed as Cmpnd (1)): increase; also recorded: decrease
patients with increased NK cell activity ([1]; evaluable samples, assayed 7 days after the second dose): Seven of the 8
patients with increase in NK cell activity between pre- and post-dose ([1]; of the 11 original patients, paired t-test p=0.06, not significant): 8 patients
time-to-progression (Kaplan-Meier, FIG. 2) ([2]; Compound (1) with paclitaxel and carboplatin versus platin/taxane combinations, preliminary data): superior to the platin/taxane combination alone; also recorded: superior to prior platin/taxane combinations alone
Best Response [2, 9]: PR (at least a 30% decrease in the sum of the longest diameters as compared to baseline); also recorded: SD (less than 20% of an increase and less than 30% of a decrease in the sum of the longest diameters as compared to baseline)
Target Lesions (percent change) [2, 9]: −34% and −24% and −62% and −5.9% and −30% and −67%
Best Response [2, 10]: PR (at least a 30% decrease in the sum of the longest diameters as compared to baseline)
Target Lesions (percent change) [2, 10]: −38% and −44%
patients achieving a partial response (PR) ([2]; Phase 1, eight of sixteen patients, with carboplatin and paclitaxel): 50%
target lesion size ([2]; each patient completing the study (#1-#8)): substantial decrease
patients with best response of at least a 30% decrease in sum of longest diameters ([2]; of the 8 patients completing the study): 5 patients
serious effects specifically attributable to Compound (1) (35 patients, 8 dose levels, with paclitaxel IV every 3 weeks): No serious effects
tolerability of the combination (Phase I, with paclitaxel, adverse events consistent with those expected for paclitaxel alone): well-tolerated
adverse events ([3]; Stage 1, with paclitaxel 80 mg/m2 weekly): as expected for paclitaxel chemotherapy administration
dose-limiting toxicities ([3]; initial safety assessment, Compound (1) 106 or 213 mg/m2 with paclitaxel 80 mg/m2 weekly): absence of dose-limiting toxicities
tolerability of the combination therapy ([3]; weekly schedule with paclitaxel): well-tolerated
non-progression rate (NPR) at 3 months ([4]; 20 evaluable patients, Stage 1): 55%
Best Response cycle 2 week 4 ([4]; Paclitaxel 80 + Cmpnd (1) 106 mg/M^2 weekly): SD (less than 20% of an increase and less than 30% of a decrease in the sum of the longest diameters as compared to baseline); also recorded: PD (at least a 20% increase in the sum of the longest diameters as compared to baseline)
Best Response cycle 2 week 4 ([4]; Paclitaxel 80 + Cmpnd (1) 213 mg/M^2 weekly): SD (less than 20% of an increase and less than 30% of a decrease in the sum of the longest diameters as compared to baseline); also recorded: PD (at least a 20% increase in the sum of the longest diameters as compared to baseline)
patients stable at 3 months ([4]; of 20 evaluable patients, Stage 1): 11 patients
patients with at least a 20% increase in sum of longest diameters (PD) ([4]; patients completing the study (#12-#20, #22)): seven patients
percent increase in Hsp70 plasma levels ([5]; Compound (1) 88 mg/m2 with paclitaxel, at least one patient): about 90%
increase in Hsp70 plasma concentrations ([5]; Compound (1) 175 mg/m2 with paclitaxel, two patients): more than doubled
increase in Hsp70 plasma concentrations ([5]; Compound (1) 263 mg/m2 with paclitaxel, individual patients): roughly doubled; also recorded: more than 250%
increase in Hsp70 plasma concentrations ([5]; Compound (1) 438 mg/m2 with paclitaxel, individual patients): roughly doubled and ≤ 500%
Induction of Hsp70 protein in plasma ([5]; Compound (1) with paclitaxel, human plasma): dose dependent
plasma Hsp70 levels in patients ([5]; paclitaxel 175 mg/m2 and Compound (1) 88 through 438 mg/m2): dramatically increased
first cycle dose-limiting toxicities ([6]; Phase 1, Cohorts 1 and 2, 16 patients, with carboplatin AUC 6 and paclitaxel): No first cycle dose-limiting toxicities
adverse effects (AEs) ([6]; Phase 1, usually Grade 1-2, with carboplatin and paclitaxel): arthralgia and myalgia, peripheral neuropathy, rash, nausea, and vomiting, fatigue, alopecia, edema, dehydration, constipation, and decreased blood counts
tolerability of carboplatin:paclitaxel:Compound (1) combination ([6]; at the dose levels studied, safety profile similar to carboplatin:paclitaxel alone): well tolerated
